In patent US10722575B2, “Use of 1,3-diphenylprop-2-en-1-one derivatives for treating liver disorders” (GENFIT, priority 2009, dated 2020):

Legend:
[1] = system: hApoE2 KI/PPARalpha KO mice; assay: hApoE2 KI/PPARalpha KO mice on Western diet, hepatic lipid analysis (liver triglycerides); type: in vivo; conditions: 30 mg/kg/day by gavage, 6 weeks, FIG. 4D
Experimental: (§1) The compounds of the General Formula (I) were tested in vivo in a high fat diet mice model. Dyslipidemic “humanized” hApoE2 KI deficient for PPARalpha were fed a Western diet and treated during 6 weeks. The compounds of interest, including the Compound 29 of WO 2004/005233 at 30 mg/kg/day and the Compound 1 of WO 2007/147879 at 30 mg/kg/day were orally administrated by gavage. At the end of the protocol, animals were sacrificed, livers were harvested and the hepatic expression of relevant genes implicated in the liver inflammation and the fibrosis processes were evaluated by quantitative RT-PCR. In parallel, liver triglycerides contents were evaluated (Panels A-D). Statistical analysis was performed as indicated for FIG. 1.
Animals were fed a Western diet (20% saturated fat and 0.2% cholesterol, Harlan Teklad TD88137) during 2 weeks in the first study, that involved the daily administration of Cpd 29 (at 30 mg/kg/day by oral gavage), and during 6 weeks in the second study, that involved the daily administration of Compound 1 of WO 2007147879 (Cpd1, at 30 mg/kg/day by oral gavage). […]
(§2) In another study, the liver-specific anti-inflammatory and anti-fibrotic properties effects of Cpd 29 and Compound 1 of WO 2007/147879 (Cpd 1) were evaluated in the hApoE2 KI/PPARalpha KO mice that were fed a Western diet and daily treated with the selected compounds during 6 weeks.

[2] = system: hApoE2 KI/PPARalpha KO mice; assay: hApoE2 KI/PPARalpha KO mice on Western diet, hepatic gene expression by quantitative RT-PCR; type: in vivo; conditions: 30 mg/kg/day by gavage, 6 weeks
Experimental: as §1
Animals were fed a Western diet (20% saturated fat and 0.2% cholesterol, Harlan Teklad TD88137) during 2 weeks in the first study, that involved the daily administration of Cpd 29 (at 30 mg/kg/day by oral gavage), and during 6 weeks in the second study, that involved the daily administration of Compound 1 of WO 2007147879 (Cpd1, at 30 mg/kg/day by oral gavage). Control animals were treated with vehicle only (Carboxymethlycellulose 1%+Tween-80 0.1%). Animals had access to food and water ad libitum.
At the end of the studies, the animals were weighed and sacrificed under anesthesia. Blood was collected from the retro-orbital sinus; plasma was obtained by centrifugation (4 000 rpm, at 4° C. for 15 min) and subsequently frozen and stored at −20° C. Tissues and livers were isolated and snap-frozen in liquid nitrogen and stored at −80° C. for subsequent analysis (gene expression and biochemistry) or fixed in 4% paraformaldehyde for histology.
Total RNA was isolated from frozen livers using the NucleoSpin® 96 RNA kit (Macherey Nagel), according to the manufacturer's instructions. Reverse transcription was performed on 1 μg of total RNA by action of 1 μl of MMLV-RT enzyme (Invitrogen) during 1 hour at 37° C. in a total volume of 30 μl. The reaction conditions were 1× buffer (Invitrogen), 1.5 mM DTT (Invitrogen), 0.18 mM dNTPs (Promega), 200 ng pdN6 (Amersham), 30U RNase inhibitor (Promega). Quantitative PCR was then carried out using the MyiQ Single-Color Real-Time PCR Detection System (Biorad). Briefly PCR reactions were performed in 96 well plates on 5 μl of diluted reverse transcription mix using the iQ SYBR Green Supermix kit. The reaction conditions were: 25 μl of volume reaction, 3 mM of MgCl2, and 0.5 μl of each reverse and forward primer solutions (10 pMol), Tm of 60° C.
The quantity of fluorescence emitted is directly proportional to the quantity of complementary DNA present at the start of the reaction and amplified during the PCR. The relative levels of expression were determined using the standard curve for each transcript. The results were then normalized in regard to the signals obtained with the 36B4 control (a reference transcript for hepatic gene expression). The induction factor, i.e. the ratio between the relative signal induced by the compound according to the invention and the average of the values relating to the control group, was then calculated for each sample. The higher this factor, the more the compound promotes target gene expression. The final result is depicted as the average of the induction values in each experimental group.
as §2

With CSc1ccc(C(=O)CCc2cc(C)c(OC(C)(C)C(=O)O)c(C)c2)cc1 [Cpd 1, 2-[2,6-dimethyl-4-[3-[4-(methylthio)phenyl]-3-oxo-propyl]phenoxy]-2-methylpropanoic acid] the “triglycerides accumulation in the liver” value [1] was “prevented”, the “liver expression of TNFα” value ([2]; FIG. 4A) was “inhibited” and the “liver expression of TGFβ” value ([2]; FIG. 4B) was “inhibited”. For the same compound, the “liver expression of collagen” value ([2]; FIG. 4C) was “inhibited”.
